Experimental data as given in patent US8497371B2, “Pipemidic acid derivative autotaxin inhibitors” (University of Memphis Research Foundation, priority 2009, dated 2013).
“Also recorded” adds a separate entry of the source. Like-named read-outs stand apart in the source and are kept apart here.

Legend:
[1] = biological target: T1, ATX (Homo sapiens, UniProt Q13822); design: conditioned serum-free medium (CCM) from MDA-MB-435 cells as the source of ATX; endogenous in cells; host or cells: MDA-MB-435 cells (about 10x concentrated serum-free conditioned medium); details: cited from earlier work
[2] = biological target: T1, ATX; experiment: ATX inhibition assay with FS-3 substrate; type: biochemical; design: conditioned serum-free medium (CCM) from MDA-MB-435 cells as the source of ATX; endogenous in cells; host or cells: MDA-MB-435 cells (about 10x concentrated serum-free conditioned medium); details: for % Response at 10 μM (FS-3): FS-3 hydrolysis normalized to vehicle control (low = strong inhibition), mean ± S.D.; for inhibition at 10 µM: single dose 10 μM, % inhibition, read-out: inhibition of ATX-mediated hydrolysis of FS-3; for single dose response comparison by aromatic substituent and position: Table 2, same values as % Response at 10 μM
Description: ATX inhibition was assayed using the substrate FS-3 (Echelon Biosciences, Inc., Salt Lake City, Utah, USA). The FS-3 assay used ˜10 times concentrated conditioned serum-free medium (CCM) from MDA-MB-435 cells as the source of ATX, while CCM comprised one-third of the total volume.
All assays were performed in 96-well plates with data read at 1 minute intervals by a Synergy2 system (BioTek, Winooski, Vt.). […] Results are shown at one hour, at which point all fluorescence and absorbance changes as a function of time were linear. All readings were normalized to vehicle control after subtraction of fluorescence in the absence of CCM. Data are shown as the mean±S.D. of at least three wells. All experiments were repeated at least twice and results are shown.

[3] = biological target: T1, ATX; details: for Inhibition Mechanism: FS-3 substrate
[4] = biological target: T2, human NPP6 (Homo sapiens, UniProt Q6UWR7); experiment: Determination of NPP6 inhibition (pNPPC substrate); type: biochemical; details: 10 μM inhibitor
T2 construct: transfected with human NPP6ex^51 or human NPP7ex expression plasmids; made in house; host or cells: HEK293 cells, transient transfection, pcDNA3.1(+); unconcentrated conditioned medium (CM)
T2 sequence (Q6UWR7 23-419 limits assumed): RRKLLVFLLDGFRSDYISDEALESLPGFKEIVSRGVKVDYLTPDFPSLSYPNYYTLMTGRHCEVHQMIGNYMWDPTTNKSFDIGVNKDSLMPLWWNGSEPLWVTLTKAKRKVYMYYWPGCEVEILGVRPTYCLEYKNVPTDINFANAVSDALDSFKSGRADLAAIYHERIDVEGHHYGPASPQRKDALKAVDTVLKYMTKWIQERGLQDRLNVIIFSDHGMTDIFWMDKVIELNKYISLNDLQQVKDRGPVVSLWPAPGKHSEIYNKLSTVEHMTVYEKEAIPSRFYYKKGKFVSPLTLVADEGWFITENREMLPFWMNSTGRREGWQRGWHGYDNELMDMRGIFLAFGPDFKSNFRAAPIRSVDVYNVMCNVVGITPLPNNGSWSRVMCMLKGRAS
Description: (§1) Inhibitor selectivity was assayed using p-nitrophenylphosphoryl-choline (pNPPC) (Sigma-Aldrich, St. Louis, Mo.) as substrate for NPP6 and NPP7. The final volume (60 μL) included 20 μL (CM, NPP6 or CCM, NPP7, 20 μL inhibitor (10 μM including 1% DMSO) in assay buffer, and 20 μL pNPPC (10 mM, NPP6 or 1 NPP7) in assay buffer. NPP6 assay buffer contained 500 mM NaCl, 0.05% Triton X-100, 100 mM Tris-HCl (pH 9.0), whereas NPP7 assay buffer was comprised of 50 mM Tris HCl, pH 8.5, 150 mM NaCl, and 10 mM taurocholic acid. However, unlike the published methods, EDTA was not added to the NPP7 assay buffer. All assays were performed in 96-well, half area plates (Corning Inc., Lowell, Mass.) at 37° C. with data collected at 2 minute intervals using a Synergy2 absorbance plate reader (BioTek, Winooski, Vt.). Results are shown at the one hour time point, when all absorbance changes as a function of time were linear. Readings were normalized to vehicle control after subtraction of absorbance in the absence of CM or CCM. Data are shown as the mean±S.D. of at least three wells. All experiments were repeated twice and representative results are shown.
(§2) Assays were performed with CM or CCM from HEK293 cells transiently transfected with NPP6 and 7 expression plasmids, respectively. HEK293 cells were seeded in Dulbecco's modified Eagle's medium (DMEM) containing 10% fetal bovine serum, 100 U/ml penicillin, 100 μg/ml streptomycin (Hyclone, Logan, Utah), and 2 mM L-glutamine. HEK293 cells were grown overnight at 37° C. under 5% CO2 to 80% confluence. The cells were then transfected with human NPP6ex^51 or human NPP7ex expression plasmids in the pcDNA3.1(+) mammalian vector in the presence of Polyfect Transfection Reagent (Hyclone, Logan, Utah). Six hours after transfection, the culture medium was changed to serum free DMEM containing L-glutamine and cells were incubated for 48 hours. Expressed protein was collected (NPP6 and NPP7) and concentrated ˜10×(NPP7) using 10 kDa molecular weight cutoff filters (Millipore, Beverly, Mass.) in an Amicon pressure cell (Millipore, Beverly, Mass.).

[5] = biological target: T1, ATX; experiment: biochemical
[6] = biological target: T3, human NPP7 (Homo sapiens, UniProt Q6UWV6); experiment: Determination of NPP7 inhibition (pNPPC substrate); type: biochemical; details: 10 μM inhibitor
T3 construct: transfected with human NPP6ex^51 or human NPP7ex expression plasmids; made in house; host or cells: HEK293 cells, transient transfection, pcDNA3.1(+); conditioned medium concentrated about 10x (CCM)
T3 sequence (Q6UWV6 22-433 limits assumed): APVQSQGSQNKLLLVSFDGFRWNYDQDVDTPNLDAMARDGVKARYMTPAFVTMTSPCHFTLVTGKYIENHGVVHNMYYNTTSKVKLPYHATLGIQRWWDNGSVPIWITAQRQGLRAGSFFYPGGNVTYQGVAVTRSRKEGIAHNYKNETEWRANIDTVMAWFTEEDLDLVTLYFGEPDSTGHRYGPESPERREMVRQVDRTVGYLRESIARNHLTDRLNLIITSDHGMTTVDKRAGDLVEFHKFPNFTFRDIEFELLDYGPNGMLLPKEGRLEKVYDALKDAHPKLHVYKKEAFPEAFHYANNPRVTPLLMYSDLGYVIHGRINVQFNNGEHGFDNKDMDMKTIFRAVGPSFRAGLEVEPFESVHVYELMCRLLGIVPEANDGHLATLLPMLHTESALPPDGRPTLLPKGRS
Description: as §1, §2

[7] = test system: A2058 cells; experiment: A2058 cell migration (scratch closure); type: cell-based; details: 30 μM inhibitor, 48 hours; for ATX-stimulated cell migration: ATX 100 ng/ml; for LPC+ATX-stimulated cell migration: LPC 18:1 10 μM + ATX 100 ng/ml; for LPC-stimulated cell migration: LPC 18:1 10 μM
Description: A2058 cells were seeded in 96-well plates at a density of 50,000 cells per well in complete growth medium (DMEM+10% FBS+penicillin/streptomycin+L-glutamine). Cells were allowed to equilibrate for 24 hours at 37° C. with 5% CO2. Cells were then serum-deprived for 24 hours in DMEM+0.1% BSA+penicillin/streptomycin+L-glutamine (serum-free medium). […] The width of the injury was measured at T0, 4 hours (data not shown), 24 hours (data not shown), and 48 hours (shown above) after injury/treatment using the 10× objective of the phase-contrast microscope and the Micron USB software package. Data represent mean percent closure±SD. n=3 for each experiment. […] However, these reductions were also not statistically significant.

[8] = biological target: T1, ATX; design: conditioned serum-free medium (CCM) from MDA-MB-435 cells as the source of ATX; endogenous in cells; host or cells: MDA-MB-435 cells (about 10x concentrated serum-free conditioned medium); details: 10 μM compound, 1 μM FS-3; earlier screen; cited from earlier work
[9] = Ki (nM), competitive inhibitors

SMILES	mechanism of inhibition (reported) [1]	% Response at 10 μM (FS-3) ([2]; 10 μM compound)	IC50 ([2]; FS-3 substrate)	IC50 ([2]; Substrate FS-3 (1 μM))	inhibition at 10 µM [2]	mechanism of ATX inhibition [3]	potency relative to the lead compound [3]	Inhibition Mechanism [3]	effect on activity of NPP6 [4]	Ki ([5]; Ki)	Ki [5, 9]	effect on activity of NPP7 [6]	ATX-stimulated cell migration [7]	LPC+ATX-stimulated cell migration [7]	LPC-stimulated cell migration [7]	other results
CCCCCCCCc1ccc(CCC(N)(CO)COP(=O)(O)O)cc1 (centres unmarked) [FTY720-phosphate]	competitive															Ki ([1]; read-out: Ki (reported)): 200 nM
N[C@@H](Cc1c[nH]cn1)C(=O)O [L-histidine]	non-competitive															
CCCCCCCCCCCCC/C=C/[C@@H](O)[C@@H](N)COP(=O)(O)O [Compound S1P, sphingosine 1-phosphate]	mixed-mode															
CCn1cc(C(=O)O)c(=O)c2cnc(N3CCN(C(=S)Nc4cc(C(F)(F)F)cc(C(F)(F)F)c4)CC3)nc21 [Compound 18, 2-(4-{[(3,5-bis(trifluoromethyl)phenyl)amino]carbonothioyl}-1-piperazinyl)-8-ethyl-5-oxo-5,8-dihydropyrido[2,3-d]pyrimidine-6-carboxylic acid]		34.1 ± 3.0%	4400 ± 1500 nM	4400 ± 1500 nM	≥ 50%	competitive	at least as potent as the lead compound	Competitive	None of the compounds affected the activity	160 nM	30 to 430 nM	None of the compounds affected the activity				
CCn1cc(C(=O)O)c(=O)c2cnc(N3CCN(C(=S)Nc4cc(Cl)cc(Cl)c4)CC3)nc21 [Compound 1]		0.0 ± 4.0%				mixed-mode		Mixed		1600 nM			significantly inhibited	significantly inhibited; also recorded: statistically significant inhibition	the reduction was not statistically significant	inhibition of ATX-catalyzed hydrolysis of FS-3, initial single concentration screen [8]: fully inhibited; block of ATX-mediated hydrolysis of FS-3 ([2]; 10 μM compound, FS-3 1 μM): completely blocked; IC50 ([2]; ATX-mediated FS-3 hydrolysis): 1600 ± 400 nM
CCn1cc(C(=O)O)c(=O)c2cnc(N3CCN(C(=S)Nc4ccc5nsnc5c4)CC3)nc21 [Compound 7, 2-(4-{[(3-benzothiadiazolphenyl)amino]carbonothioyl}-1-piperazinyl)-8-ethyl-5-oxo-5,8-dihydropyrido[2,3-d]pyrimidine-6-carboxylic acid]		28.6 ± 2.0%	12100 ± 2400 nM	12100 nM	≥ 50%	competitive	at least as potent as the lead compound	Competitive	None of the compounds affected the activity		30 to 430 nM	None of the compounds affected the activity				Ki ([5]; Ki (μM), FS-3 substrate, for mixed mode Ki=IC50 assumed): 430 nM
CCn1cc(C(=O)O)c(=O)c2cnc(N3CCN(C(=S)Nc4cc(Cl)ccc4Cl)CC3)nc21 [Compound 20, 2-(4-{[(2,5-dichlorophenyl)amino]carbonothioyl}-1-piperazinyl)-8-ethyl-5-oxo-5,8-dihydropyrido[2,3-d]pyrimidine-6-carboxylic acid]									None of the compounds affected the activity			None of the compounds affected the activity	appeared to decrease	appeared to decrease	appeared to decrease	
CCn1cc(C(=O)O)c(=O)c2cnc(N3CCN(C(=S)Nc4cccc(Cl)c4)CC3)nc21 [Compound 14, 2-(4-{[(3-chlorophenyl)amino]carbonothioyl}-1-piperazinyl)-8-ethyl-5-oxo-5,8-dihydropyrido[2,3-d]pyrimidine-6-carboxylic acid]		9.7 ± 0.9%			≥ 50%	mixed-mode		Mixed	None of the compounds affected the activity			None of the compounds affected the activity	appeared to decrease	appeared to decrease	appeared to decrease	single dose response comparison by aromatic substituent and position [2]: 9.7 ± 0.9
CCn1cc(C(=O)O)c(=O)c2cnc(N3CCN(C(=S)Nc4cccc(C(F)(F)F)c4)CC3)nc21 [Compound 11, 2-(4-{[(3-trifluoromethylphenyl)amino]carbonothioyl}-1-piperazinyl)-8-ethyl-5-oxo-5,8-dihydropyrido[2,3-d]pyrimidine-6-carboxylic acid]		0.3 ± 0.6%	900 ± 300 nM	900 ± 300 nM		competitive	at least as potent as the lead compound	Competitive	None of the compounds affected the activity	30 nM	30 to 430 nM	None of the compounds affected the activity				single dose response comparison by aromatic substituent and position [2]: 0.3 ± 0.6
